Tests used:
Assay type in all cases: cell-based
A549 (NSCLC) cells = experiment: Anti-proliferative activity, Cell-Titre luminescent viability assay; details: Homo sapiens, 72 h exposure, Cell-Titre luminescent reagent
In short: (§1)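 Cells attached 24 h at 37° C., 5% CO2, then treated 72 h with compound at 0.3–100 μM or 0.1–30 μM. Viability read by Cell-Titre luminescence after 30 min reagent exposure, normalized to vehicle; EC50 from variable-slope sigmoidal nonlinear regression.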

PC3 (prostate) cells = experiment: as above; details: 72 h exposure, Cell-Titre luminescent reagent
In short: as §1

A2780 (ovarian) cells = experiment: as above; details: Homo sapiens, 72 h exposure, Cell-Titre luminescent reagent
In short: as §1

[1] = tested on: MIA PaCa-2 (pancreatic) cells; experiment: as above; details: Homo sapiens, 72 h exposure, Cell-Titre luminescent reagent
In short: as §1

[2] = tested on: Caco-2 (colorectal) cells; experiment: as above; details: Homo sapiens, 72 h exposure, Cell-Titre luminescent reagent
In short: as §1

[3] = biological target: T1, Tpm3.1-containing actin microfilaments in SK-N-SH neuroblastoma cells (Homo sapiens, UniProt P06753); experiment: Imaging and quantitation of Tpm3.1 mCherry and 488-Atto-Phalloidin actin filaments; details: 24 hours post-treatment, two concentrations, FIG. 2 and FIG. 3
T1 construct: expressed in transfected cells; host or cells: SK-N-SH neuroblastoma cells
T1 sequence (P06753 1-248 isoform P06753-2): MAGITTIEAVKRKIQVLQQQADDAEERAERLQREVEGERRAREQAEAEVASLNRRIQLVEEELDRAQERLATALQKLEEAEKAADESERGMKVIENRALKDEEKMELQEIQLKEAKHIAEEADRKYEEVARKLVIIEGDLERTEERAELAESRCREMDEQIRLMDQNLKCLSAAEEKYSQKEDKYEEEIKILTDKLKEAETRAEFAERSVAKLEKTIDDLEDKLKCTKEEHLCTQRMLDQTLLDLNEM
Procedure: The ability of compounds 24, 26 and 143 to disrupt Tpm3.1-containing actin microfilaments was investigated in SK—N—SH neuroblastoma cells that express Tpm3.1 labelled with the mCherry fluorophore. Cells were seeded at 3×10^4 cells per well in a volume of 1000 μL complete media onto a 12 well plate containing 13 mm coverslips and left to plate down for 24 hours prior to treatment. Cells were then treated with DMSO and two concentrations of the test compounds. 24 hours post-treatment, cells were fixed with 16% paraformaldehyde (PBS) and stained with 488-Atto-Phalloidin to visualise the actin filament bundles. Single plane images were obtained using the Olympus IX83 epi-fluorescence microscope. Ten fields of view were collected for both Tpm3.1 mCherry fluorophore (FIG. 2) and 488-Atto-Phalloidin (FIG. 3) with each treatment condition.
Quantitation of either Tpm3.1 mCherry filaments or 488-Atto-Phalloidin filaments was performed using ImageJ 1.52p software (ImageJ, NIH). The mean pixel intensity from a cell was measured by using a line across the entire cell cytoplasmic area above or below the nuclear region. The line was made to cross the filament bundles at a 90° angle for the measurement rather than run along a single filament. A total of n=100 cells were measured from ten fields of view. […]

In the case of `O=C(Nc1ccc(C(F)(F)F)cc1)c1ccn(S(=O)(=O)c2ccc3[nH]ccc3c2)c1` [Compound 26, 1-((1H-indol-5-yl)sulfonyl)-N-(4-(trifluoromethyl)phenyl)-1H-pyrrole-3-carboxamide], the IC50 (A549 (NSCLC) cells) is reported as 6.8 µM, the IC50 (PC3 (prostate) cells) is reported as 7.7 µM and the IC50 (A2780 (ovarian) cells) is reported as 4.9 µM. The IC50 [1] was 10.1 µM, the IC50 [2] was 6.1 µM and the “Disruption of Tpm3.1-containing actin microfilaments” value [3] was “disrupt Tpm3.1-containing actin microfilaments in a dose-dependent manner”.

Reference: patent US12528792B2, “Sulfonamide compounds and the use thereof in the treatment of cancer” (TROBIO THERAPEUTICS PTY LTD, priority 2019, dated 2026)
